Test results as given in US7994172B2, “[1H-pyrazolo[3, 4-D]pyrimidin-4-yl]-piperidine or -piperazine compounds as serine-theoronine kinase modulators (P70s6k, Atk1 and Atk2) for the treatment of immunological, inflammatory and proliferative diseases” (Exelixis, Inc., priority 2004, dated 2011).

Key:
[1] = molecular target: T1, human p70S6 kinase (p70S6K, kinase domain residues 1-421, T412E mutation) (Homo sapiens, UniProt P23443, T412E); experiment: p70S6 kinase assay, Luciferase-Coupled Chemiluminescent Kinase assay (LCCA); type: biochemical; conditions: 5 μM ATP, 12 nM p70S6K; read-out: p70S6K inhibition IC50
T1 construct: human p70S6 kinase domainresidues 1-421, containing a T412E mutation; made in house
T1 sequence (P23443 1-421 T412E): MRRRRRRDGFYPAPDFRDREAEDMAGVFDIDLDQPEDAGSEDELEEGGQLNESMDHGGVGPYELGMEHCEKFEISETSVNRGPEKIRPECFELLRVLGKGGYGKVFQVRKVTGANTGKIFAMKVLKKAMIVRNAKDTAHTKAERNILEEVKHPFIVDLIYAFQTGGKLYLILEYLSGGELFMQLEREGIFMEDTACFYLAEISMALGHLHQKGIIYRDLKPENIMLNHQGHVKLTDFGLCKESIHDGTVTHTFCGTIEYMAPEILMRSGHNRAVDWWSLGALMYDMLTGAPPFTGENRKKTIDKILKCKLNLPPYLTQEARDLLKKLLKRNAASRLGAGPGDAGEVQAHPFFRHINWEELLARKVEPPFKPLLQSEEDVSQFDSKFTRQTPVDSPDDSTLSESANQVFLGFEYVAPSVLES
Protocol: (§1) Kinase activity and compound inhibition are investigated using one or more of the three assay formats described below. The ATP concentrations for each assay are selected to be close to the Michaelis-Menten constant (KM) for each individual kinase. Dose-response experiments are performed at 10 different inhibitor concentrations in a 384-well plate format. The data are fitted to four-parameter equation (2) below; where Y is the observed signal, X is the inhibitor concentration, Min is the background signal in the absence of enzyme (0% enzyme activity), Max is the signal in the absence of inhibitor (100% enzyme activity), IC50 is the inhibitor concentration at 50% enzyme inhibition and H represents the empirical Hill's slope to measure the cooperativity. Typically H is close to unity. Y=Min+(Max−Min)/(1+(X/IC50)^H) Equation (2) p70S6 Kinase Assay
Biochemical activity of p70S6 kinase was assessed using a Luciferase-Coupled Chemiluminescent Kinase assay (LCCA) format. Kinase activity was measured as the percent ATP remaining following the kinase reaction. Remaining ATP was detected by luciferase-luciferin-coupled chemiluminescence. Specifically, the reaction was initiated by mixing test compounds, 5 μM ATP, 5 μM RRRLSSLRA peptide and 12 nM p70S6K (baculovirus expressed human p70S6 kinase domainresidues 1-421, containing a T412E mutation) in a 20 uL assay buffer (20 mM Tris-HCL pH 7.5, 10 mM MgCl2, 0.02% Triton X-100, 100 mM DTT, 2 mM MnCl2). The mixture is incubated at ambient temperature for 2 hours after which 20 μL luciferase-luciferin mix is added and the chemiluminescent signal read using a Wallac Victor^2 reader. The luciferase-luciferin mix consists of 50 mM HEPES, pH 7.8, 8.5 μg/mL oxalic acid (pH 7.8), 5 (or 50) mM DTT, 0.4% Triton X-100, 0.25 mg/mL coenzyme A, 63 uM AMP, 28 μg/mL luciferin and 40,000 units/mL luciferase.

[2] = molecular target: T2, human Akt1 kinase (kinase domain residues R144-A480, activated with PDK1) (Homo sapiens, UniProt P31749); experiment: Akt1 kinase assay, Luciferase-Coupled Chemiluminescent Kinase assay (LCCA); type: biochemical; conditions: 1 μM ATP, 1.3 nM Akt1; read-out: Akt-1 inhibition IC50
T2 construct: made in house
T2 sequence (P31749 144-480): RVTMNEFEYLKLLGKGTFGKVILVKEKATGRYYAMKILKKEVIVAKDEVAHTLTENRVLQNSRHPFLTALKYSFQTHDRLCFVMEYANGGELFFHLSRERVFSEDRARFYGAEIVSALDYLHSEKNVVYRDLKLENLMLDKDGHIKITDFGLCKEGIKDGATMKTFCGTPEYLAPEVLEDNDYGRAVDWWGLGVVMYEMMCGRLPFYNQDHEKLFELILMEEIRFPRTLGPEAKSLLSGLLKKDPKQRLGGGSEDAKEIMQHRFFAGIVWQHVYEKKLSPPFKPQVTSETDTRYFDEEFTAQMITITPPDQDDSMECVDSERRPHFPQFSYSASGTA
Protocol: as §1
Biochemical activity of Akt1 kinase was assessed using a Luciferase-Coupled Chemiluminescent Kinase assay (LCCA) format. Kinase activity was measured as the percent ATP remaining following the kinase reaction. Remaining ATP was detected by luciferase-luciferin-coupled chemiluminescence. Specifically, the reaction was initiated by mixing test compounds, 1 μM ATP, 5 μM crosstide peptide and 1.3 nM Akt1 (baculovirus expressed human Akt1 kinase domain residues R144-A480, activated with PDK1) in a 20 uL assay buffer (20 mM Tris-HCL pH 7.5, 10 mM MgCl2, 0.01% Triton X-100, 1 mM DTT, 3 mM MnCl2). The mixture is incubated at ambient temperature for 3 hours after which 20 μL luciferase-luciferin mix is added and the chemiluminescent signal read using a Wallac Victor2 reader. The luciferase-luciferin mix consists of 50 mM HEPES, pH 7.8, 8.5 μg/mL oxalic acid (pH 7.8), 5 (or 50) mM DTT, 0.4% Triton X-100, 0.25 mg/mL coenzyme A, 63 uM AMP, 28 μg/mL luciferin and 40,000 units/mL luciferase.

Clc1ccc(CC2CCN(c3ncnc4[nH]nc(Br)c34)CC2)cc1Cl [Entry 40, 3-bromo-4-{4-[(3,4-dichlorophenyl)methyl]piperidin-1-yl}-1H-pyrazolo[3,4-d]pyrimidine]
IC50 [1]: < 0.05 µM
IC50 [2]: > 2 µM

COC(=O)c1ccc(CN2CCN(c3ncnc4[nH]nc(Br)c34)CC2)cc1 [Entry 42, methyl 4-{[4-(3-bromo-1H-pyrazolo[3,4-d]pyrimidin-4-yl)piperazin-1-yl]methyl}benzoate]
IC50 [1]: < 0.05 µM
IC50 [2]: > 2 µM

CCN(CC)CCCNC(=O)C1(Cc2ccc(Cl)cc2)CCN(c2ncnc3[nH]nc(Br)c23)CC1 [Entry 44, 1-(3-bromo-1H-pyrazolo[3,4-d]pyrimidin-4-yl)-4-[(4-chlorophenyl)methyl]-N-[3-(diethylamino)propyl]piperidine-4-carboxamide]
IC50 [1]: < 0.05 µM
IC50 [2]: 0.05 to 0.5 µM

CCN(CC)CCCNC(=O)C1(c2ccc(Cl)cc2)CCN(c2ncnc3[nH]nc(Br)c23)CC1 [Entry 49, 1-(3-bromo-1H-pyrazolo[3,4-d]pyrimidin-4-yl)-4-(4-chlorophenyl)-N-[3-(diethylamino)propyl]piperidine-4-carboxamide]
IC50 [1]: < 0.05 µM
IC50 [2]: 0.5 to 2 µM

Clc1ccc(NC2CCN(c3ncnc4[nH]nc(Br)c34)CC2)cc1 [Entry 59, 1-(3-bromo-1H-pyrazolo[3,4-d]pyrimidin-4-yl)-N-(4-chlorophenyl)piperidin-4-amine]
IC50 [1]: 0.05 to 0.5 µM
IC50 [2]: > 2 µM

O=[N+]([O-])c1cc(CN2CCN(c3ncnc4[nH]nc(Br)c34)CC2)ccc1Oc1ccc(F)cc1 [Entry 65, 3-bromo-4-[4-({4-[(4-fluorophenyl)oxy]-3-nitrophenyl}methyl)piperazin-1-yl]-1H-pyrazolo[3,4-d]pyrimidine]
IC50 [1]: 0.5 to 2 µM
IC50 [2]: > 2 µM

Clc1cc(CN2CCN(c3ncnc4[nH]nc(Br)c34)CC2)ccc1OCc1ccccc1 [Entry 80, 3-bromo-4-[4-({3-chloro-4-[(phenylmethyl)oxy]phenyl}methyl)piperazin-1-yl]-1H-pyrazolo[3,4-d]pyrimidine]
IC50 [1]: > 2 µM
IC50 [2]: > 2 µM

O=C(NCCCN1CCOCC1)c1ccc(CN2CCN(c3ncnc4[nH]nc(Br)c34)CC2)cc1 [Entry 81, 4-{[4-(3-bromo-1H-pyrazolo[3,4-d]pyrimidin-4-yl)piperazin-1-yl]methyl}-N-(3-morpholin-4-ylpropyl)benzamide]
IC50 [1]: > 2 µM
IC50 [2]: > 2 µM

COCCCNC(=O)c1ccc(CN2CCN(c3ncnc4[nH]nc(Br)c34)CC2)cc1 [Entry 82, 4-{[4-(3-bromo-1H-pyrazolo[3,4-d]pyrimidin-4-yl)piperazin-1-yl]methyl}-N-[3-(methyloxy)propyl]benzamide]
IC50 [1]: > 2 µM
IC50 [2]: > 2 µM

CN(C)CCOCC1CN(c2ncnc3[nH]nc(Br)c23)CCN1Cc1ccc(Cl)cc1 (stereo not drawn) [Entry 83, 2-[({4-(3-bromo-1H-pyrazolo[3,4-d]pyrimidin-4-yl)-1-[(4-chlorophenyl)methyl]piperazin-2-yl}methyl)oxy]-N,N-dimethylethanamine]
IC50 [1]: > 2 µM
IC50 [2]: > 2 µM

O=[N+]([O-])c1cc(CN2CCN(c3ncnc4[nH]nc(Br)c34)CC2)ccc1Oc1ccc(Cl)cc1 [Entry 84, 3-bromo-4-[4-({4-[(4-chlorophenyl)oxy]-3-nitrophenyl}methyl)piperazin-1-yl]-1H-pyrazolo[3,4-d]pyrimidine]
IC50 [1]: > 2 µM
IC50 [2]: > 2 µM

CN(C)CCO[C@@H](c1ccc(Cl)cc1)C1CCN(c2ncnc3[nH]nc(Br)c23)CC1 [Entry 86, 2-{[(R)-[1-(3-bromo-1H-pyrazolo[3,4-d]pyrimidin-4-yl)piperidin-4-yl](4-chlorophenyl)methyl]oxy}-N,N-dimethylethanamine]
IC50 [1]: < 0.05 µM
IC50 [2]: < 0.05 µM

CN(C)CCNC(=O)N(c1ccc(Br)c(F)c1)C1CCN(c2ncnc3[nH]nc(Br)c23)CC1 [Entry 87, N-(4-bromo-3-fluorophenyl)-N-[1-(3-bromo-1H-pyrazolo[3,4-d]pyrimidin-4-yl)piperidin-4-yl]-N′-[2-(dimethylamino)ethyl]urea]
IC50 [1]: < 0.05 µM
IC50 [2]: < 0.05 µM

CCc1n[nH]c2ncnc(N3CCC([C@@H](OCCN(C)C)c4ccc(Cl)cc4)CC3)c12 [Entry 88, 2-({(R)-(4-chlorophenyl)[1-(3-ethyl-1H-pyrazolo[3,4-d]pyrimidin-4-yl)piperidin-4-yl]methyl}oxy)-N,N-dimethylethanamine]
IC50 [1]: < 0.05 µM
IC50 [2]: < 0.05 µM

CN(C)CCO[C@H](c1ccc(Cl)cc1)C1CCN(c2ncnc3[nH]nc(Br)c23)CC1 [Entry 89, 2-{[(S)-[1-(3-bromo-1H-pyrazolo[3,4-d]pyrimidin-4-yl)piperidin-4-yl](4-chlorophenyl)methyl]oxy}-N,N-dimethylethanamine]
IC50 [1]: < 0.05 µM
IC50 [2]: < 0.05 µM

Clc1ccc([C@H](OCCN2CCCC2)C2CCN(c3ncnc4[nH]nc(Br)c34)CC2)cc1 [Entry 90, 3-bromo-4-(4-{(R)-(4-chlorophenyl)[(2-pyrrolidin-1-ylethyl)oxy]methyl}piperidin-1-yl)-1H-pyrazolo[3,4-d]pyrimidine]
IC50 [1]: < 0.05 µM
IC50 [2]: < 0.05 µM

CN(C)CCCC(O)(c1ccc(Cl)cc1)C1CCN(c2ncnc3[nH]nc(Br)c23)CC1 (stereo not drawn) [Entry 91, 1-[1-(3-bromo-1H-pyrazolo[3,4-d]pyrimidin-4-yl)piperidin-4-yl]-1-(4-chlorophenyl)-4-(dimethylamino)butan-1-ol]
IC50 [1]: < 0.05 µM
IC50 [2]: < 0.05 µM

CN(C)CCO[C@@H](c1ccc(Cl)c(F)c1)C1CCN(c2ncnc3[nH]nc(Br)c23)CC1 [Entry 92, 2-{[(R)-[1-(3-bromo-1H-pyrazolo[3,4-d]pyrimidin-4-yl)piperidin-4-yl](4-chloro-3-fluorophenyl)methyl]oxy}-N,N-dimethylethanamine]
IC50 [1]: < 0.05 µM
IC50 [2]: < 0.05 µM

Clc1ccc([C@H](OCCN2CCCCC2)C2CCN(c3ncnc4[nH]nc(Br)c34)CC2)cc1 [Entry 93, 3-bromo-4-(4-{(R)-(4-chlorophenyl)[(2-piperidin-1-ylethyl)oxy]methyl}piperidin-1-yl)-1H-pyrazolo[3,4-d]pyrimidine]
IC50 [1]: < 0.05 µM
IC50 [2]: < 0.05 µM

CN(C)CCCC(c1ccc(Cl)cc1)C1CCN(c2ncnc3[nH]nc(Br)c23)CC1 (stereo not drawn) [Entry 94, 4-[1-(3-bromo-1H-pyrazolo[3,4-d]pyrimidin-4-yl)piperidin-4-yl]-4-(4-chlorophenyl)-N,N-dimethylbutan-1-amine]
IC50 [1]: < 0.05 µM
IC50 [2]: < 0.05 µM

Clc1ccc([C@H](OCCN2CCOCC2)C2CCN(c3ncnc4[nH]nc(Br)c34)CC2)cc1 [Entry 95, 3-bromo-4-(4-{(R)-(4-chlorophenyl)[(2-morpholin-4-ylethyl)oxy]methyl}piperidin-1-yl)-1H-pyrazolo[3,4-d]pyrimidine]
IC50 [1]: < 0.05 µM
IC50 [2]: < 0.05 µM

CN(Cc1ccco1)C(c1ccc(F)cc1)C1CCN(c2ncnc3[nH]nc(Br)c23)CC1 (stereo not drawn) [Entry 96, 1-[1-(3-bromo-1H-pyrazolo[3,4-d]pyrimidin-4-yl)piperidin-4-yl]-1-(4-fluorophenyl)-N-(furan-2-ylmethyl)-N-methylmethanamine]
IC50 [1]: 0.05 to 0.5 µM
IC50 [2]: 0.5 to 2 µM

CN(Cc1ccccn1)C(c1ccc(F)cc1)C1CCN(c2ncnc3[nH]nc(Br)c23)CC1 (stereo not drawn) [Entry 97, 1-[1-(3-bromo-1H-pyrazolo[3,4-d]pyrimidin-4-yl)piperidin-4-yl]-1-(4-fluorophenyl)-N-methyl-N-(pyridin-2-ylmethyl)methanamine]
IC50 [1]: 0.05 to 0.5 µM
IC50 [2]: 0.5 to 2 µM

CN(C)c1ccc(CN(C)C(c2ccc(F)cc2)C2CCN(c3ncnc4[nH]nc(Br)c34)CC2)cc1 (stereo not drawn) [Entry 98, 4-{[{[1-(3-bromo-1H-pyrazolo[3,4-d]pyrimidin-4-yl)piperidin-4-yl](4-fluorophenyl)methyl}(methyl)amino]methyl}-N,N-dimethylaniline]
IC50 [1]: < 0.05 µM
IC50 [2]: 0.05 to 0.5 µM
